# Article PMC8591608, “DNDI-6148: A Novel Benzoxaborole Preclinical Candidate for the Treatment of Visceral Leishmaniasis” (Journal of Medicinal Chemistry, 2021)
# Where two headings read alike, the source gives them in different places.
# Columns and labels:
# MRC5 cytotoxicity assay = type: cell-based; settings: human, MRC5SV2 cells (human embryonic lung fibroblasts), geometric mean of at least two independent tests
# Description: (§1) Primary peritoneal mouse macrophages (PMM) were collected two days after peritoneal stimulation with a 2% potato starch suspension. MRC5SV2 cells (diploid human embryonic lung fibroblasts) were cultured in minimal essential medium (MEM) containing Earle’s salts, supplemented with L-glutamine, NaHCO3, and 5% inactivated fetal calf serum. All cultures and assays were conducted at 37 °C under an atmosphere of 5% CO2.
# (§2) Assays were performed in sterile 96-well microtiter plates, each well containing 10 μL of the compound dilution and 190 μL of MRC5SV2 or PMM inoculum (3 × 10^4 cells/mL). Cell growth was compared to untreated controls (100% growth) and assay-media controls (0% growth). After three-day incubation, cell viability was assessed fluorometrically by adding resazurin (50 μL/well of a stock solution in phosphate buffer (50 μg/mL)), incubating for 4 h and measuring fluorescence (λex 550 nm, λem 590 nm). The results were expressed as a percentage reduction in cell growth compared to untreated control wells. […] Tamoxifen was included as the reference drug.
# PMM cytotoxicity assay = type: cell-based; settings: mouse, primary peritoneal mouse macrophages (PMM); for CC50 at 72 h / CC50 at 3 days: geometric mean of at least two independent tests
# Description: as §1, §2
# L. donovani = assay: Intramacrophage L. donovani assay; type: cell-based; settings: for EC50: Leishmania donovani
# Description: (§3) L. infantum (MHOM/MA/67/ITMAP263) and L. donovani (MHOM/ET/67/L82) were maintained in the golden (Syrian) hamster (Mesocricetus auratus). Ex vivo amastigotes were collected from the spleen of an infected donor hamster using two centrifugation purification steps: 230g for 10 min, keeping the supernatant layer, and 4100g for 30 min, keeping the pellet. The spleen parasite burden was assessed using the Stauber technique.[25] For in vitro assays, the inoculum was prepared in RPMI-1640 medium, supplemented with 200 mM L-glutamine, 16.5 mM NaHCO3, and 5% inactivated fetal calf serum. For the in vivo model, an infection inoculum containing 2 × 10^7 amastigotes/100 μL was prepared in phosphate-buffered saline (PBS).
# (§4) The assay was performed in sterile 96-well microtiter plates, each well containing 10 μL of the compound dilution and 190 μL of the PMM/amastigote inoculum (3 × 10^4 cells/4.5 × 10^5 parasites per well). Parasite multiplication was compared to untreated infected controls (100% growth) and uninfected controls (0% growth). After five-day incubation, total parasite burdens were microscopically assessed after staining the cells with a 10% Giemsa solution. The results were expressed as a percentage reduction in parasite burden compared to untreated control wells. EC50 values were determined using an extended dose range (2-fold compound dilutions, 8-point concentration curve). Miltefosine was used as the reference drug.[26] For selected compounds, this assay format was also run using the L. donovani inoculum.
# [1] = Liver microsome stability, hamster; type: in vitro ADME; settings: golden (Syrian), hamster liver microsomes
# Description: (§5) Tests were performed by WuXi AppTec, China. Test compounds (at 1 μM) or positive controls (testosterone, propafenone, and diclofenac) were incubated at 37 °C with liver microsomes from Balb/c mouse, golden (Syrian) hamster, Sprague-Dawley rat, Beagle dog, or human in the presence of a NADPH regenerating system and phosphate buffer (100 mM, pH 7.4) at 0.4 or 0.8 mg/mL microsomal protein. The samples were removed at time intervals from 0 to 60, 90, or 120 min and immediately mixed with cold methanol supplemented or not with acid (3% formic acid) and centrifuged prior to analysis by LC-MS/MS using tolbutamide or propranolol as internal standards.
# [2] = Hamster oral pharmacokinetic study; type: in vivo, golden Syrian hamsters; settings: female, golden Syrian, plasma
# Description: […] The K2-EDTA anticoagulant was added to blood samples collected from 0.25 to 36 h, which were processed to plasma and stabilized with phosphoric acid (1% final) before analysis by LC-MS/MS. PK parameters were calculated using WinNonlin software (version 6.3).
# L. infantum [3] = assay: L. infantum hamster model of VL; type: in vivo
# Description: as §3
# Female golden hamsters for the in vivo model of visceral leishmaniasis were purchased from Janvier, France (body weight 80–100 g). This study using laboratory rodents was carried out in strict accordance with all mandatory guidelines (EU directives, including the Revised Directive 2010/63/EU on the protection of Animals used for Scientific Purposes that came into force on 01/01/2013, and the declaration of Helsinki in its latest version) and was approved by the ethical committee of the University of Antwerp, Belgium (UA-ECD 2011-74). Female golden hamsters for the pharmacokinetic study were purchased from Vital River, Beijing, China. This study was conducted following institutional review and in accordance with institutional and national guidelines at WuXi AppTec (the Institutional Animal Care and Use Committee (IACUC)). Balb/c mice for the in vivo model of visceral leishmaniasis (LSHTM) were purchased from Charles River, U.K., and related studies were conducted under license PPL 70/8427 from the U.K. Home Office.
# Female golden hamsters were randomly allocated to experimental groups of six animals each, based on body weight. At the start of the experiment (Day 0), each animal was infected with L. infantum or L. donovani inoculum, delivered by intracardial injection. Six hamsters were assigned to the vehicle-treated, infected control group. Six hamsters were assigned per group (1 group/compound) for the evaluation of compound and miltefosine. […] At Day 35 (10 days after the final oral dose), all animals were euthanized and autopsies were conducted. The study evaluated the following parameters. • 1. Adverse effects: all animals were observed daily for the occurrence/presence of adverse effects. • 2. Body weight: all animals were weighed twice per week to monitor general health. • 3. Parasite burden: amastigote burdens in each target organ (liver, spleen, and bone marrow) were determined at Day 35. The organs of individual animals were weighed (except for bone marrow). Impression smears were stained with Giemsa for microscopic examination of the total amastigote burden, defined as the mean number of amastigotes per cell multiplied by the number of cells counted (minimum 500 nuclei); the results were expressed as a percentage reduction in amastigote burden compared to vehicle-treated, infected control animals.
# L. infantum [4] = assay: Intramacrophage L. infantum assay; type: cell-based; settings: Leishmania infantum
# Description: as §3, §4
# [5] = Liver microsome stability, human; type: in vitro ADME; settings: human liver microsomes
# Description: as §5
# [6] = Table 6, geometric mean of at least two independent tests
# [7] = pH 7.4, Table 4, read-out: HamLM Clint
# [8] = single p.o. dose 50 mg/kg, read-out: AUC0–24 after single p.o. dose of 50 mg/kg
# [9] = Table 4, geometric mean of at least two independent tests, read-out: intramacrophage L. infantum EC50
# [10] = pH 7.4, Table 4, read-out: HLM Clint
# [11] = pH 7.4, Table 5, read-out: HamLM Clint
# [12] = Table 5, geometric mean of at least two independent tests, read-out: intramacrophage L. infantum amastigote EC50
# [13] = pH 7.4, Table 5, read-out: HLM Clint
# [14] = Table 2, geometric mean of at least three independent assays
SMILES,CC50 at 3 days (MRC5 cytotoxicity assay; Table 4),CC50 at 72 h (PMM cytotoxicity assay; Table 4),CC50 at 3 days (PMM cytotoxicity assay; Table 6),EC50 (L. donovani; [6]),"microsomal CLint at 2 h, 1 µM [1, 7]","AUC(0-t) [2, 8]","reduction in parasite burden, bone marrow, 5 days (L. infantum [3]; 25 mg/kg BID p.o. for 5 days)","reduction in parasite burden, liver, 5 days (L. infantum [3]; 25 mg/kg BID p.o. for 5 days)","reduction in parasite burden, spleen, 5 days (L. infantum [3]; 25 mg/kg BID p.o. for 5 days)","reduction in parasite burden, bone marrow, 5 days (L. infantum [3]; 50 mg/kg BID p.o. for 5 days)","reduction in parasite burden, liver, 5 days (L. infantum [3]; 50 mg/kg BID p.o. for 5 days)","reduction in parasite burden, spleen, 5 days (L. infantum [3]; 50 mg/kg BID p.o. for 5 days)",EC50 (L. infantum [4]; [9]),"microsomal CLint at 1 μM [5, 10]",CC50 at 72 h (MRC5 cytotoxicity assay; Table 5),CC50 at 72 h (PMM cytotoxicity assay; Table 5),"microsomal CLint at 2 h, 1 µM [1, 11]",EC50 (L. infantum [4]; [12]),"microsomal CLint at 1 μM [5, 13]",also measured
"O=C(Nc1ccc2c(c1)B(O)OC2)c1cn(CC(F)(F)F)nc1C(F)(F)F [Compound 5, N-(1-Hydroxy-1,3-dihydrobenzo[c][1,2]oxaborol-6-yl)-1-(2,2,2-trifluoroethyl)-3-(trifluoromethyl)-1H-pyrazole-4-carboxamide]",> 64 µM,50 µM,53.8 µM,1 µM,41 µL/min/mg,21000 ng·h/mL,77.0%,89.7%,90.0%,98.0%,99.7%,99.2%,1.6 µM,< 11.9 µL/min/mg,–,–,–,–,–,–
"Cc1c(C(=O)Nc2ccc3c(c2)B(O)OC3)cnn1-c1ccccn1 [Compound 16, N-(1-Hydroxy-1,3-dihydrobenzo[c][1,2]oxaborol-6-yl)-5-methyl-1-(pyridin-2-yl)-1H-pyrazole-4-carboxamide]",–,59 µM,> 64 µM,1.2 µM,57 µL/min/mg,–,72.2%,87.8%,87.7%,95.1%,99.6%,98.5%,3.1 µM,< 11.9 µL/min/mg,–,–,–,–,–,"CC50 at 72 h (MRC5 cytotoxicity assay; Table 4): 61 µM; CC50 at 3 days (MRC5 cytotoxicity assay; Table 6): 61.1 µM; AUC(0-t) ([2]; study run using a single 25 mg/kg p.o. dose, read-out: AUC0–24 after single p.o. dose): 7900 ng·h/mL"
"Cc1oc(C(=O)Nc2ccc3c(c2)B(O)OC3)cc1-c1ccccn1 [Compound 29, N-(1-Hydroxy-1,3-dihydrobenzo[c][1,2]oxaborol-6-yl)-5-methyl-4-(pyridin-2-yl)furan-2-carboxamide]",–,–,–,–,–,–,–,–,–,–,–,–,–,–,45 µM,29 µM,82 µL/min/mg,1.7 µM,< 11.9 µL/min/mg,–
"Cc1c(-c2ccccn2)csc1C(=O)Nc1ccc2c(c1)B(O)OC2 [Compound 30, N-(1-Hydroxy-1,3-dihydrobenzo[c][1,2]oxaborol-6-yl)-3-methyl-4-(pyridin-2-yl)thiophene-2-carboxamide]",–,–,–,–,–,–,–,–,–,–,–,–,–,–,2.3 µM,32 µM,88 µL/min/mg,0.6 µM,< 11.9 µL/min/mg,–
"O=C(Nc1ccc2c(c1)B(O)OC2)c1nnc(-c2ccccn2)o1 [Compound 31, N-(1-Hydroxy-1,3-dihydrobenzo[c][1,2]oxaborol-6-yl)-5-(pyridin-2-yl)-1,3,4-oxadiazole-2-carboxamide]",–,–,–,9.4 µM,–,21000 ng·h/mL,55.0%,67.3%,69.0%,99.7%,99.4%,99.4%,–,–,–,–,12 µL/min/mg,2 µM,–,"CC50 at 3 days (MRC5 cytotoxicity assay; Table 5): > 64 µM; CC50 at 3 days (PMM cytotoxicity assay; Table 5): > 64 µM; fold weaker against L. donovani compared with L. infantum potency (L. donovani; intramacrophage potency): about 5 fold; microsomal CLint at 2 h, 1 µM [5, 13]: 19 µL/min/mg"
"CCCCCCCCCCCCCCCCOP(=O)([O-])OCC[N+](C)(C)C [miltefosine, reference compound]",> 64 µM,33 µM,–,–,–,–,–,–,–,–,–,–,–,–,–,–,–,–,–,"EC50 at 3 days (PMM cytotoxicity assay; [14]): 33 µM; EC50 (L. donovani; [14]): 10 µM; EC50 (L. infantum [4]; Table 2, geometric mean of at least three independent assays, read-out: intramacrophage L. infantum EC50): 10 µM"
